B1: IL-4: cytokine used to stimulate HASMC (protein, UniProt P05112 25-153, looked up)
Interleukin-4: HKCDITLQEIIKTLNSLTEQKTLCTELTVTDIFAASKNTTEKETFCRAATVLRQFYSHHEKDTRCLGATAQQFHRHKQLIRFLKRLDRNLWGLAGLNSCPVKEANQSTLENFLERLKTIMREKYSKCSS

How the values were obtained:
[1] = test system: TNF-α-mediated PTX3 release from HASMC; experiment: Effect of MAPK inhibitors on TNF-α-induced PTX3 release from HASMC (ELISA); type: cell-based, human; settings: 10 μM, 1 h pretreatment, then TNF-α 10 ng/ml for 24 h
Description: (§1) Confluent HASMC (passages 2-5) were growth-arrested by FBS deprivation for 48 h in Ham's F-12 medium containing 5 μg/ml human recombinant insulin, 5 μg/ml human transferrin, 5 ng/ml selenium, and antibiotics (100 U/ml penicillin and 100 μg/ml streptomycin). Cells were then stimulated in fresh FBS-free medium containing graded concentration (0.1, 1, 10, and 100 ng/ml) of human TNF-α, IL-4, PTX3 or medium alone. In some experiments, cells were pretreated for 1 h with U-0126 (10 μM), SB-203580 (10 μM), or SP600125 (50 nM) before stimulation for 24 h with TNF-α (10 ng/ml), at 10 ng/ml. Supernatants were collected at 24 and 48 h, centrifuged at 1,200 rpm for 7 min at 4° C. to remove cellular debris, and stored at −80° C. until analysis by ELISA.
(§2) Immunoreactive PTX3 within the supernatants was quantified using ELISA with matched antibodies according to basic laboratory protocols provided by the manufacturer (R&D Systems Inc., Minneapolis, Minn.). PTX3 protein was quantified in reference to serial dilutions of recombinant standards falling within the linear part of the standard curve for each specific PTX3 measured. Each data point represents readings from a minimum of four independent assays wherein each assay was performed in duplicate.
One of the major downstream pathways for TNF-α-induced cell activation is MAPKs, which play an important role in cells for inflammatory response. Growth-arrested HASMC cells were left unstimulated (medium alone) or treated with 10 ng/ml TNF-α for 24 h, with or without pretreatment for 1 h with inhibitors of JNK (SP600125 50 nM), p42/p44 ERK (U-0126, 10 μM) and p38 MAPK (SB-203580, 10 μM).

[2] = test system: PTX3 mRNA expression in human airway smooth muscle cells (HASMC); experiment: PTX3 mRNA expression in cultured HASMC (RT-PCR / real-time RT-PCR); type: cell-based
Description: as §1
Confluent HASMC (passages 2-5) were growth-arrested for 48 h in serum-free medium as described above. Cells were then stimulated in fresh FBS-free medium containing human recombinant TNF-α (10 ng/ml), IL-4, or medium alone for 2, 6, and 24 h. Cells were harvested, and total cellular RNA was extracted using TRIzol® method (Invitrogen Life Technologies, Gaithersburg, Md.). The RNA concentration and purity were assessed with optical density measurements. […] Amplified products were analyzed by DNA gel electrophoresis in 2% agarose and visualized by ethidium bromide staining under ultraviolet illumination. […] The PTX3 level was quantified by scanning densitometry and corrected for GAPDH in the same sample. […]
Total cellular RNA extraction and reverse transcription was performed as described above. […] The amount of extracted DNA was quantified by spectrophotometry and expressed as copy number. […] For real-time quantitative PCR, each reaction contained the following: 1× LightCycler® DNA Master SYBR Green I (Roche), 25 mM MgCl2, 0.5 μM each primer, 0.07 μM TaqStart® Ab (Clontech), and 10 μl (1:10 for PTX3 and 1:80 for GAPDH) of cDNA, in a final volume of 25 μl. […]

PTX3 release from HASMC = experiment: PTX3 protein release from HASMC into the supernatant (ELISA); type: cell-based, human; settings: growth-arrested HASMC, 24 h, 0.1, 1, 10 ng/ml
Description: as §1, with “Supernatants were collected at 24 and 48 h, centrifuged at 1,200 rpm for 7 min at 4° C. to remove cellular debris, and stored at −80° C. until analysis by ELISA.” left out
as §2
Assessments were made of the effects of dosage and exposure time of TNF-α on HASMC. […] For both experiments, HASMC were stimulated with 0.1, 1, 10 or 100 ng/ml TNF-α, or medium alone for 24 h after which, PTX3 was measured by ELISA.

Row | Molecule | effect on TNF-α-induced PTX3 release [1] | PTX3 release from HASMC (PTX3 release from HASMC) | other results
1 | C[S+]([O-])c1ccc(-c2nc(-c3ccncc3)c(-c3ccc(F)cc3)[nH]2)cc1 (centres unmarked) [SB-203580, 4-(4-fluorophenyl)-2-(4-methyl-sulfinylphenyl)-5-(4′-pyridyl)-1H-imidazole] | no effect | – | –
2 | N#CC(=C(N)Sc1ccccc1N)C(C#N)=C(N)Sc1ccccc1N [U-0126, 1,4-diamino-2,3-dicyano-1,4-bis(2-aminophenylthio)butadiene] | significant inhibition | – | effect on TNF-α-induced PTX3 release ([1]; listed as U0126): abrogate
3 | TNF-α | – | induced the release of PTX3 in a dose-dependent manner | fold increase of PTX3 mRNA compared with unstimulated cells ([2]; 10 ng/mL, 6 h, ratio to GAPDH, mean±SD of three experiments): 30.93±11.25 fold; time of peak PTX3 mRNA response ([2]; 10 ng/ml, stimulated 2, 6 and 24 h, real-time RT-PCR): 6 h
4 | B1 | – | No significant PTX3 release | effect on PTX3 mRNA expression ([2]; 6 h, data not shown): no significant effect
